Data as given in publication PMC7117798 (Nature immunology, 2020).
Entries after “also recorded” stand apart in the source; their conditions may differ.

Tests used:
[1] = tested on: CD4^+ T cell hybridomas with C3g7 APCs; experiment: Antigen presentation assay; assay type: cell-based, mouse; settings: for response of InsB:11–25-reactive CD4^+ T cell hybridoma clone 58: Extended Data Fig. 3
I-A^g7 = experiment: Competitive binding assay; design: species or system mouse; settings: n = 2 independent experiments
[2] = tested on: CD4^+ T cells from islets and pLN; assay type: cell-based; settings: 8–10-week old female NOD mice; challenge with Ins1C:51–61 or Ins1C:51–61E and recall; compared with native Ins1C:51–61 or Ins1C:33–61; Fig. 3g
[3] = C3g7 APCs pulsed with epitope, Fig. 2c

CCN(CC)CCCC(C)Nc1ccnc2cc(Cl)ccc12 (centres unmarked) [chloroquine, reference compound]
effect on presentation of Ins1C:33–61 to a cognate CD4^+ T cell hybridoma ([1]; C3g7 APCs treated with 100 μM chloroquine at 37°C for 2 h in the presence of antigen, Extended Data Fig. 1d): did not affect the presentation

EALYLVCGE [InsB:13–21]
response of InsB:11–25-reactive CD4^+ T cell hybridoma clone 58 [1, 3]: did not recognize; also recorded: unreactive

LQTLALEVARE [Ins1C:51–61E]
fold higher binding affinity to I-A^g7 than Ins1C:51–61 (I-A^g7; competitive binding assay, Fig. 3e): ~ 3 fold
IL-2 and IFN-γ production by islet/pLN CD4^+ T cells [2]: substantially stronger responses

LYLVCGERG [InsB:15–23]
response of InsB:11–25-reactive CD4^+ T cell hybridoma clone 58 [1, 3]: responded

TLALEVARE [Ins1C:53–61E]
relative binding strength to I-A^g7 (in words) (I-A^g7; competitive binding assay on C3g7 cells): bound poorly

VEALYLVCG [InsB:12–20]
response of InsB:11–25-reactive CD4^+ T cell hybridoma clone 21 [1, 3]: cross-reacted
response of InsB:11–25-reactive CD4^+ T cell hybridoma clone 58 [1, 3]: did not recognize; also recorded: unreactive
